Our source for the IC50, EC50 and GI50 values is US20230027026A1, “FUSED PYRIMIDINE COMPOUNDS, COMPOSITIONS AND MEDICINAL APPLICATIONS THEREOF” (JUBILANT BIOSYS LIMITED, priority 2019, published 2023).

For experiment [1], the target named is T1, EGFR (T790M/L858R) (Homo sapiens, UniProt P00533, L858R/T790M).
T1 construct: GST; purchased Proqinase
The experiment can be described thus: EGFR L858R/T790M enzyme inhibition assay (HTRF). Conditions: 5 μM ATP, 60 min, read-out: EGFR_L858R T790M_IC50_nM. The format is biochemical. Here is the method: Example 2: EGFR L858R & Del19/T790M Assay Protocol (to Find the IC50 for the Compounds Using HTRF Method)
Reagents for Enzyme Assay:
• 1. Enzyme Assay Buffer: 60 mM HEPES (pH 7.4), 50 mM NaCl, 20 mM MgCl2, 5 mM MnCl2, filtered using 0.2 μm pore size, stored at 4° C. • Supplements (added fresh to the enzyme buffer): 1M DTT stock was made, 5% BSA stock and 0.1M Na3OV4 stored at 4° C. Enzyme assay buffer 50 mL, 1 M DTT 100 μL, 5% BSA 500 μL, 0.1 M Na3OV4 50 μL. • 2. GST-hEGFR (L858R), active: EGFR (T790M/L858R), active (Proqinase), 3.6 μM stock; 2.5 nM in final assay. • 3. Gastrin Precusor-Biotinylated: Gastrin precursor (Tyr87) biotinylated peptide, EEAY*GWM, Cell Signaling Tech 1310, Lot-7, Want final 0.5 μM in assay. • 4. ATP: 10 mM stock in 100 μL Enzyme assay buffer pH 7.4 prepared freshly, want 5 μM in final assay. • 5. Test compounds: Powders were dissolved in 100% DMSO and made up to a final stock concentration of 10 mM (volume in μL to add for 10 mM=mg powder X 10^5/MW). Final compound concentration in the assay plate started at 10 μM.
• 1. HTRF buffer: 50 mM Tris —HCl, pH-7.5, 100 mM NaCl, 0.1% BSA, 0.05% Tween20, 0.5 mM EDTA, filtered using 0.2 μm pore size, stored at 4° C. • Phycolink® Streptavidin-Allophycocyanin (SA-APC) Prozyme, Cat. #PJ25S, Lot #896 085, 2.06 mg/mL, APC concentration is 11.6 μM, streptavidin concentration is 15.5 μM. Want 12 nM final in assay (based on streptavidin concentration). • 2. (Europium) Eu-W1024 Anti-phosphotyrosine (PT-66) Antibody: Perkin Elmer (Product Number: AD0068), monoclonal IgG1 that recognizes phosphotyrosine peptide 100 μg/ml stock. Want 0.1 nM final in assay.
• 1. The compound dilution was made by TECAN as per the above scheme. • 2. 16 μL of diluted compound was added to the assay plate by using TECAN. • 3. 10 μL of enzyme mix was added to each well except mins. • 4. 20 μL of substrate and ATP mix were added into each well of the assay plate, manually. • 5. The plate was incubated on a laboratory shaker at room temperature for 60 min. • 6. Meanwhile, the HTRF mix was prepared and 75 μL was added to the HTRF plate. • 7. When the incubation was over, 10 μL of the reaction mixture was transferred to the HTRF assay plate and incubated on a laboratory shaker for 30 min at room temperature. • 8. The reading was taken in Pherastar (ext 337 nm, Em 665 & 620 nm). • 9. The results were analyzed using Graphpad prism after calculation of the z factor, signal window and % inhibition to get the IC50.
(In general: In TR-FRET formats the signal depends on donor and acceptor labels being close together.)

The test system of experiment [2] is H1975 cells (L858R_T790M mutant). The experiment can be described thus: H1975 proliferation assay. The format is cell-based. Conditions: Homo sapiens, NCI-H1975; read-out: Proliferation_Assay H1975 cells-EC50_nM L858R_T790M_mutant.
In experiment [3] the target is EGFR(D770_N771insSVD) expressing Ba/F3 stable cell line (Homo sapiens, UniProt P00533, DUP768-770, cells depend on it). As to the kind of experiment: Cellular proliferation (Alamar Blue) assay, EGFR D770_N771insSVD Ba/F3. In kind it is cell-based. Conditions: EGFR D770_N771insSVD Ba/F3, 72 hr, read-out: D770 IC50. In outline:
(§1)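 Alamar Blue proliferation read-out (3 h incubation, ex 540/em 590 nm) after 72 h compound exposure at 37 °C, 5% CO2, using final concentrations of 10-0.0005 μM in 3-fold steps. Cells: engineered Ba/F3 lines at 15,000 per well in RPMI/10% FBS, and BT-474.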
(In general: Alamar Blue is a resazurin reagent that responds to reducing activity.)

Experiment [4] has as its target EGFR (A767_dupASV) expressing Ba/F3 stable cell line (Homo sapiens, UniProt P00533, DUP767-769, cells depend on it). As to the kind of experiment: Cellular proliferation (Alamar Blue) assay, EGFR A767_dupASV Ba/F3. The format is cell-based. Conditions: EGFR A767_dupASV Ba/F3, 72 hr, read-out: A767 IC50. The procedure, abridged: as §1
Experiment [5] concerns A431 cells. The experiment can be described thus: Cellular proliferation (Alamar Blue) assay, A431. Conditions: Homo sapiens, A-431; A431 cells, 72 hr, Alamar Blue; read-out: A431 IC50. The format is cell-based. In outline: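 Seventy-two-hour growth assay with 3-fold compound titration (final 10–0.0005 μM) and Alamar Blue fluorescence end point, ex 540/em 590 nm.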

Chain of EGFR(D770_N771insSVD) expressing Ba/F3 stable cell line (P00533 with tags, fused parts or gaps DUP768-770): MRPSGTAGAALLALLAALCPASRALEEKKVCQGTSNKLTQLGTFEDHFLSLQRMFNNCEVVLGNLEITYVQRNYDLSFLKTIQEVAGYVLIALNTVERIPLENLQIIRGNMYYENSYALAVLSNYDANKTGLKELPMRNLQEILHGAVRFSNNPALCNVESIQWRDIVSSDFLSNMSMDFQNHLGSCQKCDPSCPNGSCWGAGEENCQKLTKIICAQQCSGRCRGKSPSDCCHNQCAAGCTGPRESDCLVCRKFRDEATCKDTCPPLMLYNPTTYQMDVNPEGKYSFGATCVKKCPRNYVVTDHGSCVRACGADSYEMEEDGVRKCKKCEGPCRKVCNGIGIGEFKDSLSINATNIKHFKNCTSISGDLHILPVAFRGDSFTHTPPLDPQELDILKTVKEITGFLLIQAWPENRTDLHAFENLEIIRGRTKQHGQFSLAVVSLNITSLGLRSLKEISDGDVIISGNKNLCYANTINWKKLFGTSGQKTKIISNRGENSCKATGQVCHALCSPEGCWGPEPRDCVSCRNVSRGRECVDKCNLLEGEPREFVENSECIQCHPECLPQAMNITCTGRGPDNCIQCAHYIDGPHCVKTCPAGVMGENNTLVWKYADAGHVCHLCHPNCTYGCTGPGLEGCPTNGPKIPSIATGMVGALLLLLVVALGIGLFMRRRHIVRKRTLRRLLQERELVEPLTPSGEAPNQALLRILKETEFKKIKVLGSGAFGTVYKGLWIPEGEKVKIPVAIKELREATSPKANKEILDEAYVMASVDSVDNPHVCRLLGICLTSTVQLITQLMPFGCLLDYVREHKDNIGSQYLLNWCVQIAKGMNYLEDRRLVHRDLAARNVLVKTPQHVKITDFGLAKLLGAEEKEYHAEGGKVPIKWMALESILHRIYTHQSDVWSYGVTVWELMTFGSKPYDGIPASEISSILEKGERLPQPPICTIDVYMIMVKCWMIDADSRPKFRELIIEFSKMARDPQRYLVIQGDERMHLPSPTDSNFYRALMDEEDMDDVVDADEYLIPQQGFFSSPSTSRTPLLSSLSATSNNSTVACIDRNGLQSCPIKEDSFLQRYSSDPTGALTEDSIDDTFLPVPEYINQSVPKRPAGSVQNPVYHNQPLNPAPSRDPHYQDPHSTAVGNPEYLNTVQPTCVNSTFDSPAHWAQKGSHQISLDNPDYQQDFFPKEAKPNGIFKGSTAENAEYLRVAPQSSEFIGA
T1 sequence (P00533 25-1210 T790M/L858R): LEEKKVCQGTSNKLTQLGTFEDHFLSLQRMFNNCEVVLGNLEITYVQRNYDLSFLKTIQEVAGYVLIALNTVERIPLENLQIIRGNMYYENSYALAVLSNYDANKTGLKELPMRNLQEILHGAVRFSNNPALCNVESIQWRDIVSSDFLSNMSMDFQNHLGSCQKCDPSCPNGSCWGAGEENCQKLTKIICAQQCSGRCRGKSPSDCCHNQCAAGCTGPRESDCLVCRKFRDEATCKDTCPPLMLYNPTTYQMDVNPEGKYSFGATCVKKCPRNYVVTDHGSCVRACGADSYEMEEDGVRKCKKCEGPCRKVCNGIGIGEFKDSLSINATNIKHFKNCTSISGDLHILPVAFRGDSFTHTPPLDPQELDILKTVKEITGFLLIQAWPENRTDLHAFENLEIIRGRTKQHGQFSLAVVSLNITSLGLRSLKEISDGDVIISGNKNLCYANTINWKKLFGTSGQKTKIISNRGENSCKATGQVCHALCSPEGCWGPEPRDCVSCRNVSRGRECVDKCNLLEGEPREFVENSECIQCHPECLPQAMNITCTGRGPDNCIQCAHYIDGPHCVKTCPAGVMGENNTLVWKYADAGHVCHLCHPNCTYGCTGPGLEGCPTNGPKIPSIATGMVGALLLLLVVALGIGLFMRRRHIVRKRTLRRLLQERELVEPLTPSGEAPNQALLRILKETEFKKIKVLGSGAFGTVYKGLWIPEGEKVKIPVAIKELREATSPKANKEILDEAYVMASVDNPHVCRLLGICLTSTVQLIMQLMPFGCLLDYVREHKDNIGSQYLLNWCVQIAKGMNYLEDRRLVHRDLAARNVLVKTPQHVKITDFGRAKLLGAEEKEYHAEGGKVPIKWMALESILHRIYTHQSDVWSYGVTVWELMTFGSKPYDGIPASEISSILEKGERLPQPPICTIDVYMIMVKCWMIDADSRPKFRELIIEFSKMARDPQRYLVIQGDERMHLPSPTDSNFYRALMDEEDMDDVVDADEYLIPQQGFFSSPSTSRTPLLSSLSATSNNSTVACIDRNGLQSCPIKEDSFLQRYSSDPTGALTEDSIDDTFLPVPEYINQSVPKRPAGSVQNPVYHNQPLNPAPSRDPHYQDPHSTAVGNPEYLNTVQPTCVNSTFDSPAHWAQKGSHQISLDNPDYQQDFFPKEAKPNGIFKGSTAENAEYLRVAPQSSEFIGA
Chain of EGFR (A767_dupASV) expressing Ba/F3 stable cell line (P00533 with tags, fused parts or gaps DUP767-769): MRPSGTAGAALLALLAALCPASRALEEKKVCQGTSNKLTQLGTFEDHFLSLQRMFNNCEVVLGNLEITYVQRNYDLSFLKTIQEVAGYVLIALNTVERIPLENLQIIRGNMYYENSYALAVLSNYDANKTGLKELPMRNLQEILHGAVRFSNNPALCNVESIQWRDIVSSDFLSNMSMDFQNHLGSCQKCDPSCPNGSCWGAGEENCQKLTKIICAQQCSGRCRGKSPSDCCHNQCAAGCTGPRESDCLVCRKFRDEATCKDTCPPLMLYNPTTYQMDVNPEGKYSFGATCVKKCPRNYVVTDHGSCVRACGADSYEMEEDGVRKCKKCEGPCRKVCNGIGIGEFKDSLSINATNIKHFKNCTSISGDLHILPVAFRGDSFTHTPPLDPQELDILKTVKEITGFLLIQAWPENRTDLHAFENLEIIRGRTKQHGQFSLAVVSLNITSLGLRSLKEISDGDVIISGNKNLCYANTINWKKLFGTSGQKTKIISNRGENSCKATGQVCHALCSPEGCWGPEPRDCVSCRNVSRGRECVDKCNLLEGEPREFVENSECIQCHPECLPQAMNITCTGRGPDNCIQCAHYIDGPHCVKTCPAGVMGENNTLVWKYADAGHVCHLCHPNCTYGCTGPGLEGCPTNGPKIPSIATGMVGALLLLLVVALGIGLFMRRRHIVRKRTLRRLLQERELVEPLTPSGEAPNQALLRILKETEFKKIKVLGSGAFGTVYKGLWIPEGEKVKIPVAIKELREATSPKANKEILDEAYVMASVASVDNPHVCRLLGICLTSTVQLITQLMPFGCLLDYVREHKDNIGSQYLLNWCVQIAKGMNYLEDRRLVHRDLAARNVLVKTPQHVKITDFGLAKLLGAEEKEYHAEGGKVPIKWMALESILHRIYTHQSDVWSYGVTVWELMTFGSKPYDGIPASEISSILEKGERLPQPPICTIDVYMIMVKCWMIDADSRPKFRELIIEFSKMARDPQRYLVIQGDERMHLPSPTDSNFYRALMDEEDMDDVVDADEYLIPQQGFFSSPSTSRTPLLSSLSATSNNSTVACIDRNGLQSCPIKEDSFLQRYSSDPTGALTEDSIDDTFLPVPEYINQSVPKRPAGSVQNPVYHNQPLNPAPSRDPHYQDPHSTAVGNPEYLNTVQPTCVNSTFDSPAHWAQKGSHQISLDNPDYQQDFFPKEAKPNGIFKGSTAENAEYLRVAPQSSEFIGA

For the molecule `CN(C)C/C=C/C(=O)Nc1cccc(N2C(=O)N(Cc3ccc(F)cc3)Cc3cnc(Nc4cnn(C)c4)nc32)c1` [Compound 2, (E)-4-(dimethylamino)-N-(3-(3-(4-fluorobenzyl)-7-((1-methyl-1H-pyrazol-4-yl)amino)-2-oxo-3,4-dihydropyrimido[4,5-d]pyrimidin-1(2H)-yl)phenyl)but-2-enamide], the values for the IC50 in experiment [1] and in experiment [5] were 2 nM and 615 nM, respectively. The EC50 in experiment [2] amounted to 19.7 nM. Besides, the GI50 in experiment [3] was 893 nM; in experiment [4], 414 nM.
Consider `C=CC(=O)Nc1cccc(N2C(=O)N(Cc3ccc(F)cc3)Cc3cnc(Nc4cnn(C)c4)nc32)c1` [Compound 3, N-(3-(3-(4-fluorobenzyl)-7-((1-methyl-1H-pyrazol-4-yl)amino)-2-oxo-3,4-dihydropyrimido[4,5-d]pyrimidin-1(2H)-yl)phenyl)acrylamide], for which the figures for the IC50 in experiment [1] and in experiment [5] were 13 nM and 676 nM, respectively. Further, the EC50 in experiment [2] is 40.9 nM. Further, the GI50 in experiment [3] worked out at 131 nM; in experiment [4] it was 184 nM.
As to `C=CC(=O)Nc1cccc(N2C(=O)N(Cc3ccccc3)Cc3cnc(Nc4cnn(C)c4C)nc32)c1` [Compound 4, N-(3-(3-benzyl-7-((1,5-dimethyl-1H-pyrazol-4-yl)amino)-2-oxo-3,4-dihydropyrimido[4,5-d]pyrimidin-1(2H)-yl)phenyl)acrylamide], the results for the IC50 in experiment [1] and in experiment [5] were 2.4 nM and 78 nM, respectively. The EC50 in experiment [2] turned out to be 4.9 nM. Moreover, the values for the GI50 in experiment [3] and in experiment [4] were 40 nM and 57 nM, respectively.
The corresponding values for `Cc1nn(CC(F)(F)F)cc1Nc1ncc2c(n1)N(c1cccc(NC(=O)/C=C/CN(C)C)c1)C(=O)N(Cc1ccccc1)C2` [Compound 8, (E)-N-(3-(3-benzyl-7-((3-methyl-1-(2,2,2-trifluoroethyl)-1H-pyrazol-4-yl)amino)-2-oxo-3,4-dihydropyrimido[4,5-d]pyrimidin-1(2H)-yl)phenyl)-4-(dimethylamino)but-2-enamide] are 9 nM, 580 nM, 9.2 nM, 108 nM and 103 nM.
The corresponding values for `Cc1c(Nc2ncc3c(n2)N(c2cccc(NC(=O)/C=C/CN(C)C)c2)C(=O)N(Cc2ccccc2)C3)cnn1C` [Compound 11, (E)-N-(3-(3-benzyl-7-((1,5-dimethyl-1H-pyrazol-4-yl)amino)-2-oxo-3,4-dihydropyrimido[4,5-d]pyrimidin-1(2H)-yl)phenyl)-4-(dimethylamino)but-2-enamide] are 2 nM, 1710 nM, 9.6 nM, 2430 nM and 1150 nM.
As to `CN(C)C/C=C/C(=O)Nc1cccc(N2C(=O)N(Cc3ccccc3)Cc3cnc(Nc4cnn(CC(F)(F)F)c4)nc32)c1` [Compound 12, (E)-N-(3-(3-benzyl-2-oxo-7-((1-(2,2,2-trifluoroethyl)-1H-pyrazol-4-yl)amino)-3,4-dihydropyrimido[4,5-d]pyrimidin-1(2H)-yl)phenyl)-4-(dimethylamino)but-2-enamide], the IC50 in experiment [1] worked out at 3 nM; in experiment [5], 1240 nM. Further, in experiment [2], the EC50 worked out at 6.6 nM. For the same molecule, the GI50 in experiment [3] turned out to be 134 nM; in experiment [4], 106 nM.
As for `C=CC(=O)Nc1cccc(N2C(=O)N(Cc3ccccc3)Cc3cnc(Nc4cnn(CCO)c4)nc32)c1` [Compound 13, N-(3-(3-benzyl-7-((1-(2-hydroxyethyl)-1H-pyrazol-4-yl)amino)-2-oxo-3,4-dihydropyrimido[4,5-d]pyrimidin-1(2H)-yl)phenyl)acrylamide], the results for the IC50 in experiment [1] and in experiment [5] were 1 nM and 59 nM, respectively. Besides, in experiment [2], the EC50 stood at 1.5 nM. The GI50 in experiment [3] was found to be 42 nM; in experiment [4], 45 nM.
In the same order, the values of `CN(C)C/C=C/C(=O)Nc1cccc(N2C(=O)N(Cc3ccccc3)Cc3cnc(Nc4cnn(CCO)c4)nc32)c1` [Compound 14, (E)-N-(3-(3-benzyl-7-((1-(2-hydroxyethyl)-1H-pyrazol-4-yl)amino)-2-oxo-3,4-dihydropyrimido[4,5-d]pyrimidin-1(2H)-yl)phenyl)-4-(dimethylamino)but-2-enamide] are 5 nM, 6080 nM, 37.8 nM, 2920 nM and 2570 nM.
In the same order, the values of `COCCn1cc(Nc2ncc3c(n2)N(c2cccc(NC(=O)/C=C/CN(C)C)c2)C(=O)N(Cc2ccccc2)C3)cn1` [Compound 16, (E)-N-(3-(3-benzyl-7-((1-(2-methoxyethyl)-1H-pyrazol-4-yl)amino)-2-oxo-3,4-dihydropyrimido[4,5-d]pyrimidin-1(2H)-yl)phenyl)-4-(dimethylamino)but-2-enamide] are 1 nM, 371 nM, 15.7 nM, 2310 nM and 1170 nM.
The corresponding values for `CN(C)C/C=C/C(=O)Nc1cccc(N2C(=O)N(c3ccc(F)cc3)Cc3cnc(Nc4cnn(C)c4)nc32)c1` [Compound 18, (E)-4-(dimethylamino)-N-(3-(3-(4-fluorophenyl)-7-((1-methyl-1H-pyrazol-4-yl)amino)-2-oxo-3,4-dihydropyrimido[4,5-d]pyrimidin-1(2H)-yl)phenyl)but-2-enamide] are 2.5 nM, 332 nM, 34 nM, 1100 nM and 421 nM.
Turning to `CN(C)C/C=C/C(=O)N(C)c1cccc(N2C(=O)N(Cc3ccccc3)Cc3cnc(Nc4cnn(C)c4)nc32)c1` [Compound 21, (E)-N-(3-(3-benzyl-7-((1-methyl-1H-pyrazol-4-yl)amino)-2-oxo-3,4-dihydropyrimido[4,5-d]pyrimidin-1(2H)-yl)phenyl)-4-(dimethylamino)-N-methylbut-2-enamide], the IC50 in experiment [1] was determined as 45 nM; in experiment [5], 2080 nM. For the same molecule, the EC50 in experiment [2] is 83.9 nM. Further, the GI50 in experiment [3] was found to be 3350 nM; in experiment [4], 2810 nM.
For the molecule `Cc1cc(Nc2ncc3c(n2)N(c2cccc(NC(=O)/C=C/CN(C)C)c2)C(=O)N(Cc2ccccc2)C3)sn1` [Compound 22, (E)-N-(3-(3-benzyl-7-((3-methylisothiazol-5-yl)amino)-2-oxo-3,4-dihydropyrimido[4,5-d]pyrimidin-1(2H)-yl)phenyl)-4-(dimethylamino)but-2-enamide], the IC50 in experiment [1] stood at 7 nM; in experiment [5], 46 nM. Besides, the EC50 in experiment [2] was 10 nM. Moreover, the results for the GI50 in experiment [3] and in experiment [4] were 278 nM and 121 nM, respectively.
